Measured values as given in patent publication US20080118573A1, “Use of Heavy Metals in the Treatment of Biofilms” (priority 2004, published 2008).
Converted amounts (≈) assume the structure as drawn. Like-named read-outs stand apart in the source and are kept apart here.

What was measured:
Assay type in all cases: cell-based
[1] = system: Staphylococcus aureus ATCC 29213 planktonic and biofilm bacteria; experiment: MBEC-HTP antibiotic susceptibility, S. aureus; settings: CA-MHB, 24 h exposure
Procedure: (§1) Luria-Bertani medium was chosen for two reasons: 1) its established use in studies of metal resistance, and 2) because of the use of rich media in NCCLS testing protocols for antimicrobial resistance. Antibiotic resistance assays were performed using cation-adjusted Mueller-Hinton broth (CA-MHB, BDH Inc.) and subcultures, MBC and MBEC bacterial counts were performed using trypticase soy agar (TSA, Difco).
(§2) The present study used a novel high throughput method for screening biofilm susceptibility to metal cations and oxyanions: the MBEC device (MBEC Bioproducts Inc., Edmonton, Alberta, Canada, http://www.mbec.ca). The MBEC high throughput (MBEC-HTP) assay system consists of a shallow trough into which a plastic lid with 96 pegs fits. This peg lid also fits over a standard 96-well microtitre plate which can subsequently be used to setup serial dilutions of antimicrobial compounds. The bottom half of the MBEC device is a trough that has shallow channels that direct flow of an inoculated suspension over the pegs on the lid.
(§3) The inoculum was standardized to a 1.0 McFarland standard and verified by viable counts. The 1.0 McFarland standard inoculum was diluted 30-fold with growth media, which served as the growth suspension to inoculate the MBECJ device.
(§4) P. aeruginosa was incubated for 9 h, S. aureus for 24 h and E. coli for 24 h to generate approximately equivalent biofilms of 6.0×10^6 cfu/peg. Following the incubation period, growth of biofilm and planktonic cultures in the MBECJ device were discerned and verified by viable cell counts.
(§5) Chloramphenicol (Sigma) was prepared in 50% ethanol and treated identically to the other antibiotics. 10% ethanol was added to the growth controls for chloramphenicol assays. […] Starting with the working solutions, serial two-fold dilutions were made in the wells of a 96-well plate (the challenge plate), leaving the first well of each row as a sterility control and the second as a growth control (i.e. no antibiotic).

[2] = system: Pseudomonas aeruginosa ATCC 27853 planktonic and biofilm bacteria; experiment: MBEC-HTP antibiotic susceptibility, P. aeruginosa; settings: CA-MHB, 24 h exposure
Procedure: as §1, §2, §3, §4, §5

[3] = system: Pseudomonas aeruginosa biofilms; experiment: Metal and antibiotic combination assay; settings: median of 4 replicates
Procedure: Cells were grown to a mean density of 6.0×10^6 cfu/peg in LB+B1 media.
• 1. […] All data are median values based on 4 replicates.

[4] = system: Pseudomonas aeruginosa ATCC 27853 planktonic and biofilm bacteria; settings: LB+B1, 24 h exposure; for MIC: P. aeruginosa ATCC 27853; for MBEC: P. aeruginosa ATCC 27853 biofilm; for MBC: P. aeruginosa ATCC 27853 planktonic
[5] = system: Staphylococcus aureus ATCC 29213 planktonic and biofilm bacteria; settings: LB+B1, 24 h exposure; for MIC: S. aureus ATCC 29213; for MBEC: S. aureus ATCC 29213 biofilm; for MBC: S. aureus ATCC 29213 planktonic
[6] = system: Escherichia coli JM109 planktonic and biofilm bacteria; settings: LB+B1, 24 h exposure; for MIC: E. coli JM109; for MBEC: E. coli JM109 biofilm; for MBC: E. coli JM109 planktonic
[7] = antibiotic in combination with 500 μg/ml Zn^2+
[8] = antibiotic or heavy metal alone, LB+B1

Molecule | MIC ([1]; S. aureus ATCC 29213) | MBEC ([1]; S. aureus ATCC 29213 biofilm) | MBC ([1]; S. aureus ATCC 29213 planktonic) | MIC ([2]; P. aeruginosa ATCC 27853) | MBEC ([2]; P. aeruginosa ATCC 27853 biofilm) | MBC ([2]; P. aeruginosa ATCC 27853 planktonic) | MBC [3, 7] | MIC [3, 7] | MBC [3, 8] | MBEC [3, 8] | MIC [3, 8] | MIC [4] | MBEC [4] | MBC [4] | MIC [5] | MBEC [5] | MBC [5] | MIC [6] | MBEC [6] | MBC [6]
Gentamicin | <2 µg/mL | 3.5 ± 1 µg/mL | 4 ± 0 µg/mL | 10 ± 4 µg/mL | >1024 µg/mL | 28 ± 8 µg/mL | 128 µg/mL | 64 µg/mL | 32 µg/mL | >1024 µg/mL | 8 µg/mL |  |  |  |  |  |  |  |  | 
[Cl][Cd][Cl] [Cd^2+, Cadmium chloride] |  |  |  |  |  |  |  |  |  |  |  | 4.6 ± 0 mM | 36 ± 0 mM | 36 ± 0 mM | 0.25 ± 0.07 mM | 15.9 ± 4.6 mM | 18.2 ± 0 mM | 1.1 ± 0 mM | 2.3 ± 0 mM | 2.3 ± 0 mM
[Cl][Sn][Cl] [Sn^2+, stannous chloride] |  |  |  |  |  |  |  |  |  |  |  | 17 ± 0 mM | 17 ± 0 mM | 22 ± 9 mM | 8.6 ± 0 mM | 17.3 ± 0 mM | 17.3 ± 0 mM |  | 17 ± 0 mM | 17 ± 0 mM
O=S(=O)([O-])[O-].[Mn+2] [Mn^2+, manganous sulfate] |  |  |  |  |  |  |  |  |  |  |  | >149 mM | >149 mM | >149 mM | 12 ± 5 mM | >149 mM | >149 mM | 37 ± 0 mM | 199 ± 86 mM | 199 ± 86 mM
O=[N+]([O-])[O-].[Ag+] [Ag^+, silver nitrate] |  |  |  |  |  |  |  |  |  |  |  | 0.30 ± 0 mM | 0.40 ± 0.17 mM | 0.30 ± 0 mM | 0.30 ± 0 mM | >9.5 mM | 9.5 ± 0 mM | 0.06 ± 0.02 mM | 0.07 ± 0.02 mM | 0.09 ± 0.04 mM
O=[Se](O)O [SeO3^2−, selenous acid] |  |  |  |  |  |  |  |  |  |  |  | 28 ± 8 mM (≈ 3610 µg/mL) | 28 ± 8 mM | 28 ± 8 mM (≈ 3610 µg/mL) | 16 ± 0 mM (≈ 2060 µg/mL) | 16 ± 0 mM | 16 ± 0 mM (≈ 2060 µg/mL) | 8.1 ± 0 mM (≈ 1040 µg/mL) | 8.1 ± 0 mM | 8.1 ± 0 mM (≈ 1040 µg/mL)
Sodium arsenite [AsO2^−] |  |  |  |  |  |  |  |  |  |  |  | >77 mM | >77 mM | >77 mM | 9.6 ± 0 mM | >77 mM | >77 mM | 2.4 ± 0 mM | 77 ± 0 mM | 77 ± 0 mM
[Na+].[Na+].[O]=[W](=[O])([O-])[O-] [WO4^2−, sodium tungstate] |  |  |  |  |  |  |  |  |  |  |  | >66 mM | >66 mM | >66 mM | >66 mM | >66 mM | >66 mM | >66 mM | >66 mM | >66 mM
